Measurements reported in ChEMBL document CHEMBL3039007, “Structure-based identification of OATP1B1/3 inhibitors” (Mol Pharmacol, 2013).

Key:
[1] = target: T1, Solute carrier organic anion transporter family member 1B1 (Homo sapiens, UniProt Q9Y6L6); conditions: chinese hamster, cho, 10 µM
T1 sequence (Q9Y6L6 whole entry): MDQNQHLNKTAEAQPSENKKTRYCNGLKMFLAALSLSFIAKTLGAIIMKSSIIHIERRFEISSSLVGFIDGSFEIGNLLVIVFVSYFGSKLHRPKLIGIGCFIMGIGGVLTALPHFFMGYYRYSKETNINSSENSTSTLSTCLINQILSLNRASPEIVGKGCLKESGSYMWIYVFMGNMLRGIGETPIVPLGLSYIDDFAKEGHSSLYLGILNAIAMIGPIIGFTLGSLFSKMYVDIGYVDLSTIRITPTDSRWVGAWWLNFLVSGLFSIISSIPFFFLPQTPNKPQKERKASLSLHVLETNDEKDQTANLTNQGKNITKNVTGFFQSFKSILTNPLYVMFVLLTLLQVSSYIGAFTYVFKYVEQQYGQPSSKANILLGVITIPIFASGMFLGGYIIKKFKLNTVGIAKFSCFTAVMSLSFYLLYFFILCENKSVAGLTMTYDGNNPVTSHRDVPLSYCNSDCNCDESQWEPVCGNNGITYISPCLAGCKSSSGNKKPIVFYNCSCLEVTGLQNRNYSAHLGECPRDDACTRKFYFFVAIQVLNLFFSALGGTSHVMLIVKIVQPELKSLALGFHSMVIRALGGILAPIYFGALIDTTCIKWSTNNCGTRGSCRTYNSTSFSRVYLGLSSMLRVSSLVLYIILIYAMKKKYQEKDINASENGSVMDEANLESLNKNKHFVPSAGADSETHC

[2] = target: T2, Solute carrier organic anion transporter family member 1B3 (Homo sapiens, UniProt Q9NPD5); conditions: chinese hamster, cho, 10 µM
T2 sequence (Q9NPD5 whole entry): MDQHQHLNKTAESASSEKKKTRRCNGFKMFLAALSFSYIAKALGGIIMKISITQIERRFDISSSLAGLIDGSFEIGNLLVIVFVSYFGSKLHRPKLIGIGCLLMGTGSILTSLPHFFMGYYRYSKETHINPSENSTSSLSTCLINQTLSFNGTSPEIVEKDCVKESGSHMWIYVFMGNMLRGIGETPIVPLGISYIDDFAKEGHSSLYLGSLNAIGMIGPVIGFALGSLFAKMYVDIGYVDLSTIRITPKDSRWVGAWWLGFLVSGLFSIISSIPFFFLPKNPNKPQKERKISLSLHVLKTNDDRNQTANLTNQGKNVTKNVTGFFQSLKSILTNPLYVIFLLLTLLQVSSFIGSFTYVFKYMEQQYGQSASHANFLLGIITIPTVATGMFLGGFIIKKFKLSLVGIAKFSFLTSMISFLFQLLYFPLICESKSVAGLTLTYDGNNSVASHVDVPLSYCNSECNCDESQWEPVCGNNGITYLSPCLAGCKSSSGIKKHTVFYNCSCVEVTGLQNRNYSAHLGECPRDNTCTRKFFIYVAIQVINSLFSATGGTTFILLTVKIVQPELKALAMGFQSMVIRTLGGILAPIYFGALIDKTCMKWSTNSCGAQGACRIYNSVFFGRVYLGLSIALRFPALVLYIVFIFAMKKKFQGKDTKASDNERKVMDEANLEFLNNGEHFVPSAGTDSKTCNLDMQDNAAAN

[H]/N=C(/N)NS(=O)(=O)c1ccc(N)cc1 [SULFAGUANIDINE]
residual activity [1]: 119.2%
residual activity [2]: 108%

COc1ccc(C(C)=O)c(OC)c1 [PEONOL METHYL ETHER]
residual activity [1]: 105.9%
residual activity [2]: 99.54%

CC[C@@H](C)C(=O)O[C@H]1[C@H](O)[C@H]2[C@@H](CN3C[C@@H](C)CC[C@H]3[C@@]2(C)O)[C@@H]2C[C@]34O[C@]5(O)[C@@H](OC(=O)[C@@](C)(O)CC)CC[C@@]3(C)[C@@H]5[C@@H](OC(C)=O)[C@@H](OC(C)=O)[C@H]4[C@@]21O [PROTOVERATRINE A]
residual activity [1]: 93.58%
residual activity [2]: 77.86%

CCCCCC(=O)Cc1cc(O)cc(O)c1C(=O)Oc1cc(CC(=O)CCCCC)c(C(=O)O)c(OC)c1 [ARTHONIOIC ACID]
residual activity [1]: 52.3%
residual activity [2]: 96.29%

Cl.NNc1nncc2ccccc12 [HYDRALAZINE HYDROCHLORIDE]
residual activity [1]: 87.74%
residual activity [2]: 115.1%

CC(=O)CC(=O)CCC(=O)O [SUCCINYLACETONE]
residual activity [1]: 92.01%
residual activity [2]: 94.95%

CCOP(=S)(OCC)SCSCC [PHORATE]
residual activity [1]: 102.7%
residual activity [2]: 107.3%

O=c1ccc2ccc(O)cc2o1 [UMBELLIFERONE]
residual activity [1]: 26.71%
residual activity [2]: 76.49%

NC(=O)c1cc[n+](CC2=C(C(=O)[O-])N3C(=O)[C@@H](NC(=O)[C@@H](c4ccccc4)S(=O)(=O)[O-])[C@H]3SC2)cc1.[Na+] [CEFSULODIN SODIUM]
residual activity [1]: 91.84%
residual activity [2]: 101.2%

O=C1c2ccccc2C(=O)C1c1ccccc1 [PHENINDIONE]
residual activity [1]: 89.42%
residual activity [2]: 128.9%

Cc1c(NC(=O)c2cccnc2)c(=O)n(-c2ccccc2)n1C [NIFENAZONE]
residual activity [1]: 96.39%
residual activity [2]: 120.6%

Cc1cc(C2CCCCC2)n(O)c(=O)c1.NCCO [CICLOPIROX OLAMINE]
residual activity [1]: 129.1%
residual activity [2]: 106%

O=C1C=C2CC3(O)COc4cc(O)ccc4C3=C2C=C1O (configuration not stated) [BRAZILEIN]
residual activity [1]: 96.33%
residual activity [2]: 95.51%

COc1cc(OC)c2ccc(=O)oc2c1 [CITROPTEN]
residual activity [1]: 81.95%
residual activity [2]: 105.5%

COc1ccc2c(c1)CC[C@@H]1[C@@H]2CC[C@]2(C)[C@@H](O)[C@H](O)C[C@@H]12
residual activity [1]: 76.58%
residual activity [2]: 103.4%

CC(=O)O[C@H]1C[C@@]2(C)[C@@H](C[C@@H](O)[C@H]3[C@@]4(C)CC[C@@H](O)[C@@H](C)[C@@H]4CC[C@@]32C)/C1=C(\CCC=C(C)C)C(=O)O [FUSIDIC ACID]
residual activity [1]: 39.52%
residual activity [2]: 58.34%

CC(C)CCC[C@@H](C)[C@H]1CC[C@H]2[C@@H]3CC=C4CC(=O)CC[C@]4(C)[C@H]3CC[C@]12C [CHOLEST-5-EN-3-ONE]
residual activity [1]: 119.6796%
residual activity [2]: 103.5%

CC[N+](C)(C)c1cccc(O)c1.[Cl-] [EDROPHONIUM CHLORIDE]
residual activity [1]: 79.44%
residual activity [2]: 93.08%

CC(C)(Sc1cc(C(C)(C)C)c(O)c(C(C)(C)C)c1)Sc1cc(C(C)(C)C)c(O)c(C(C)(C)C)c1 [PROBUCOL]
residual activity [1]: 102.2%
residual activity [2]: 90.56%

CC[C@@H](C)C(=O)O[C@H]1[C@H](O)[C@H]2[C@@H](CN3C[C@@H](C)CC[C@H]3[C@@]2(C)O)[C@@H]2C[C@]34O[C@]5(O)[C@@H](OC(=O)[C@](C)(O)[C@@H](C)O)CC[C@@]3(C)[C@@H]5[C@@H](OC(C)=O)[C@@H](OC(C)=O)[C@H]4[C@@]21O [PROTOVERATRINE B]
residual activity [1]: 114.4%
residual activity [2]: 125.5%

CCCNC(=O)NS(=O)(=O)c1ccc(Cl)cc1 [CHLORPROPAMIDE]
residual activity [1]: 102%
residual activity [2]: 102.2%

CCCCN1CCCCC1C(=O)Nc1c(C)cccc1C.Cl (configuration not stated) [BUPIVACAINE HYDROCHLORIDE]
residual activity [1]: 97.15%
residual activity [2]: 94.2%

O=S1OCC2C(CO1)C1(Cl)C(Cl)=C(Cl)C2(Cl)C1(Cl)Cl (configuration not stated) [ENDOSULFAN]
residual activity [1]: 111.6%
residual activity [2]: 117.8%

C[C@](N)(Cc1ccc(O)cc1)C(=O)O [METYROSINE]
residual activity [1]: 64.38%
residual activity [2]: 84.41%

O=C(NC(=O)c1c(F)cccc1F)Nc1cc(Cl)c(OC(F)(F)C(F)C(F)(F)F)cc1Cl (configuration not stated) [LUFENURON]
residual activity [1]: 102.8%
residual activity [2]: 97.09%

NC[C@@H]1CC[C@@H](N)[C@@H](O[C@H]2[C@H](O)[C@@H](O[C@H]3O[C@H](CO)[C@@H](O)[C@H](N)[C@H]3O)[C@H](N)C[C@@H]2N)O1 [DIBEKACIN]
residual activity [1]: 88.15%
residual activity [2]: 96.4%

COc1cc2c(cc1-c1coc3c4c(c(OC)cc3c1=O)OC(C)(C)C=C4)OCO2 [ICHTHYNONE]
residual activity [1]: 105.6%
residual activity [2]: 118.8%

CC(=O)O[C@H]1CC[C@@]2(C)[C@@H](CC[C@@H]3[C@@H]2CC(=O)[C@]2(C)[C@@H]4[C@H](C[C@@H]32)O[C@]2(CC[C@@H](C)CO2)[C@H]4C)C1 [HECOGENIN ACETATE]
residual activity [1]: 103.5%
residual activity [2]: 102%

NCCc1c[nH]c2ccccc12 [TRYPTAMINE]
residual activity [1]: 101%
residual activity [2]: 104.1%

CC(=O)O[C@H]1CC[C@]2(C)C3=C(CC[C@H]2C1(C)C)[C@]1(C)CC[C@H]([C@H](C)CCC=C(C)C)[C@@]1(C)CC3
residual activity [1]: 54.67%
residual activity [2]: 93.79%

N[C@H](C(=O)O)[C@@H]1CC(Cl)=NO1 [ACIVICIN]
residual activity [1]: 137.7%
residual activity [2]: 113.3%

C[C@@H]1CC[C@H]2[C@](C)(CO)[C@@H](O)CC[C@]2(C)[C@@]12CC[C@@](CO)(CCO)O2 [LAGOCHILINE]
residual activity [1]: 99.12%
residual activity [2]: 95.67%

CNC(C)C(O)c1ccccc1.Cl (configuration not stated) [RACEPHEDRINE HYDROCHLORIDE]
residual activity [1]: 70.72%
residual activity [2]: 103.1%

COc1cc(O)c(C(C)=O)c(OC)c1 [XANTHOXYLIN]
residual activity [1]: 128.7%
residual activity [2]: 104.3%

O=C(O)c1ccccc1Nc1cccc(C(F)(F)F)c1 [FLUFENAMIC ACID]
residual activity [1]: 211.3%
residual activity [2]: 64.03%

CCCCc1nc(Cl)c(CO)n1Cc1ccc(-c2ccccc2-c2nn[nH]n2)cc1 [LOSARTAN]
residual activity [1]: 23.21%
residual activity [2]: 3.759%

C[C@@H]1CC[C@]2(NC1)O[C@H]1C[C@H]3[C@@H]4CC=C5C[C@@H](O)CC[C@]5(C)[C@H]4CC[C@]3(C)[C@H]1[C@@H]2C [SOLASODINE]
residual activity [1]: 91.83%
residual activity [2]: 113.6%

O=C(O)c1cccnc1 [NIACIN]
residual activity [1]: 124.4%
residual activity [2]: 89.89%

C[C@H]1[C@H](C)CC[C@]2(CO)CC[C@]3(C)C(=CC[C@@H]4[C@@]5(C)CC[C@H](O)C(C)(C)[C@@H]5CC[C@]43C)[C@H]12 [UVAOL]
residual activity [1]: 121.5%
residual activity [2]: 107.5%

CC(C(=O)O)c1cccc(Oc2ccccc2)c1 (configuration not stated) [FENOPROFEN]
residual activity [1]: 160.2%
residual activity [2]: 96.37%

Cl.NCCc1ccc(O)c(O)c1 [DOPAMINE HYDROCHLORIDE]
residual activity [1]: 66.46%
residual activity [2]: 73.49%
